Data published in patent publication US20110064662A1, “KIT FOR PRODUCING MOLECULAR PROBE FOR PET SCREENING FOR DRUG DISCOVERY” (RIKEN, priority 2007, published 2011).

Experiments:
[1] = PET analysis of the brain of the monkey after intravenous injection of labeled compound; assay type: in vivo; conditions: for stability against metabolism: concluded from monkey brain PET images; for initial brain uptake for 10 minutes after administration / elimination from the brain: monkey; for initial brain uptake for 10 minutes after administration: i.v. about 900 MBq, PET of brain, compared with conventional labeled compound
Protocol: The N-(2,5-dimethoxybenzyl)-N-[5-fluoro(4-[^11-C]methylphenoxy)-phenyl]acetamide ([^11C]-9) (^11C-labeled compound) produced in Example 9 was diluted with a mixed solution of physiological saline (3.6 ml), propylene glycol (0.3 ml), ethanol (0.1 ml), and a Tween 80 surfactant (0.1 ml), a radioactivity of about 900 MBq was introduced into a monkey through an intravenous injection, and a PET analysis of the brain of the monkey was performed using an animal PET scanner SHR-7700 manufactured by Hamamatsu Photonics K.K. ([^11C]-20).
[^11C]DAA1106 represented by the formula below was administered into a monkey in the same manner as in Example 10 except that [^11C]DAA1106 was used in place of the N-(2,5-dimethoxybenzyl)-N-[5-fluoro(4-[^11C]methylphenoxy)phenyl]acetamide ([^11C]-9) (labeled compound) produced in Example 9. The time radioactivity curves thereof are shown also in FIG. 3. […] [^11C]DAA1106 was separately produced according to WO 99/06353.
The 1-(2-chloro-5-methylphenyl)-N-methyl-(1-methylpropyl)-3-isoquinolinecarboxamide ([^11C]-20) (^11C-labeled compound) produced in Example 11 was diluted with a mixed solution of physiological saline (3.6 ml), propylene glycol (0.3 ml), ethanol (0.1 ml), and a Tween 80 surfactant (0.1 ml), a radioactivity of about 900 MBq was introduced into a monkey through an intravenous injection, and a PET analysis of [^11C]-20 in the brain of the monkey was performed using an animal PET scanner SHR-7700 manufactured by Hamamatsu Photonics K.K. The results are shown in FIG. 2.
[^11C]PK11195 represented by the formula below was administered into a monkey in the same manner as in Example 12 except that [^11C]PK11195 was used in place of the 1-(2-chloro-5-methylphenyl)-N-methyl-(1-methylpropyl)-3-isoquinolinecarbox amide ([^11C]-20) (labeled compound) produced in Example 11. […] [^11C]PK11195 was separately produced according to R. Camsonne et al., Journal of Labeled Compounds and Radiopharmaceuticals, 1984, 11, pp. 985-991.
The 10-O-p-[^11C]methylbenzylginkgolide B ([^11C]-29) (^11C-labeled compound) produced in Example 16 was diluted with a mixed solution of physiological saline (1.8 ml), propylene glycol (0.15 ml), ethanol (0.05 ml), a Tween 80 surfactant (0.05 ml), and intralipos (2.05 ml), a radioactivity of about 900 MBq was introduced into a monkey through an intravenous injection, and a PET analysis of [^11C]-29 in the brain of the monkey was performed using an animal PET scanner SHR-7700 manufactured by Hamamatsu Photonics K.K. The results are shown in FIG. 8.
[^18F]-30 represented by the formula below was administered into a monkey in the same manner as in Example 17 except that [^18F]-30 was used in place of the 10-O-p-[^11C]-methylbenzylginkgolide B ([^11C]-29) (^11C-labeled compound) produced in Example 16. […] [^18F]-30 was separately produced according to Makiko Suehiro, et al., J. Labelled Compd. Radiopharm., 47, pp. 485-491, 2004.

[2] = target: PAF receptor (Homo sapiens, UniProt P25105); conditions: more strongly than natural ginkgolide B; cited from earlier work
[3] = system: P-glycoprotein; assay: Experiment for determining P-glycoprotein substrates (brain radioactivity in rats with or without cyclosporin A pre-administration); assay type: in vivo; conditions: for amount of tracer present in the brain upon pre-administration of CsA: CsA in different doses 30 min before tracer, brain removed 30 min after tracer
Protocol: P-glycoprotein inhibitor cyclosporin A (CsA) was administered into rats 30 minutes prior to the administration of tracers. Thirty minutes after the administration of tracers, the rats were decapitated to remove the brains and measure the radioactivity. […] An SUV value in the present experiment is the average of the results obtained from 4 rats and expressed using a standard deviation.

[4] = Proportion of brain SUV to blood SUV in rats, with and without brain blood perfusion; assay type: in vivo; conditions: for uptake by the parenchyma of the brain: concluded from pre- and post-perfusion data; for amount of tracer after the brain blood perfusion: physiological saline perfused via the heart before decapitation
Protocol: As in Example 18, P-glycoprotein inhibitor cyclosporin A (CsA) was administered into rats in an amount of 25 mg/kg body weight of a rat 30 minutes prior to the administration of tracers. Thirty minutes after the administration of tracers, the rats were decapitated to remove the brains and measure the radioactivity. The figures show the results obtained from control rats into which no CsA was administered and from those into which CsA was administered in an amount of 25 mg/kg, expressed as a proportion of the brain SUV to the blood SUV. The SUV value in the present experiment is the average of the results obtained from two rats and expressed using a standard deviation. 10-O-p-[^11C]methylbenzylginkgolide B ([^11C]-29) (^11C-labeled compound) produced in Example 16 and [^18F]-30 were used as the tracers. […] FIG. 11 is from the measurement of radioactivity in the brain removed after decapitation, and FIG. 12 is from the measurement of radioactivity performed after flushing the blood out of the brain by infusing/perfusing physiological saline into the heart of a rat before decapitation.

[5] = time radioactivity curves after i.v. administration

Chain of PAF receptor (P25105 whole entry): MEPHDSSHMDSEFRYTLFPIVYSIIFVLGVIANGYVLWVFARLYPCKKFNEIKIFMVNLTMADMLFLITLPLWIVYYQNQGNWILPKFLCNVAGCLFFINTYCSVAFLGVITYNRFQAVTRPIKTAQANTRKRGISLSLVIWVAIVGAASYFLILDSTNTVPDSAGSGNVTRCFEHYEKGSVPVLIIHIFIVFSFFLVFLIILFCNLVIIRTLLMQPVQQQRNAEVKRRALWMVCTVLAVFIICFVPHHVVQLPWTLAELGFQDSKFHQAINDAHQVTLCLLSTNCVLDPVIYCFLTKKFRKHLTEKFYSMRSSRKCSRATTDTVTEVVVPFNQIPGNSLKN

Compound | stability against metabolism [1] | brain uptake ([1]; monkey brain PET) | initial brain uptake for 10 minutes after administration [1] | elimination from the brain [1, 5] | further results
CCC(C)N(C)C(=O)c1cc2ccccc2c(-c2cc([11CH3])ccc2Cl)n1 (centres unmarked) [[^11C]-20, 1-(2-chloro-5-[^11C]methylphenyl)-N-methyl-(1-methylpropyl)-3-isoquinolinecarboxamide] | stable against metabolism | greater than that of the conventional labeled compound | greater initial brain uptake | promptly eliminated from the brain with time | 
COc1ccc(O[11CH3])c(CN(C(C)=O)c2cc(F)ccc2Oc2ccccc2)c1 [[^11C]DAA1106, reference compound] |  |  |  |  | elimination from the brain ([1]; in vivo, iv): barely eliminated from the brain
Cc1ccc(COC2C(=O)OC3O[C@@]45C(=O)OC6C[C@@H](C(C)(C)C)C32C64[C@@H](O)[C@@H]2OC(=O)[C@@H](C)[C@@]25O)cc1 (some centres unmarked) [compound 29, 10-O-p-methylbenzylginkgolide B] |  |  |  |  | binding with a PAF receptor relative to natural ginkgolide B [2]: 10 times
CCC(C)N([11CH3])C(=O)c1cc2ccccc2c(-c2ccccc2Cl)n1 (centres unmarked) [[^11C]PK11195, reference compound] |  |  |  | barely eliminated from the brain | 
10-O-p-[^11C]methylbenzylginkgolide B [[^11C]-29] | stable against metabolism |  | increased initial brain uptake | promptly eliminated from the brain with time | amount of tracer present in the brain upon pre-administration of CsA [3]: changed in a volume-dependent manner; SUV values relative to those of [^11C]verapamil ([3]; brain SUV, [^11C]verapamil as standard reference): about 30%; uptake by the parenchyma of the brain [4]: taken up by the parenchyma of the brain; amount of tracer after the brain blood perfusion ([4]; control and CsA 25 mg/kg): did not change
COc1ccc(OC)c(CN(C(C)=O)c2cc(F)ccc2Oc2ccc([11CH3])cc2)c1 [[^11C]-9, N-(2,5-dimethoxybenzyl)-N-[5-fluoro-(4[^11C]methylphenoxy)phenyl]acetamide] | stable against metabolism | greater than that of the conventional labeled compound | greater initial brain uptake |  | 
C[C@@H]1C(=O)O[C@H]2[C@H](O)C34C5OC(=O)[C@@]3(OC3OC(=O)C(O)C34[C@H](C(C)(C)C)[C@@H]5[18F])[C@@]12O (some centres unmarked) [[^18F]-30, reference compound] |  | barely taken up by the brain |  |  | blood-brain barrier penetration ([1]; monkey brain PET): little blood-brain barrier penetration; amount of tracer present in the brain upon pre-administration of CsA [3]: did not change; proportion of the brain SUV to the blood SUV ([4]; 30 min after tracer, control and CsA 25 mg/kg): ≤ 0.04; uptake by the parenchyma of the brain [4]: not taken up by the parenchyma of the brain; amount of tracer after the brain blood perfusion ([4]; control and CsA 25 mg/kg): washed away by the brain blood perfusion
